According to patent US7220822B2, “CD28 mimetics for blocking T cell mediated immune reactions” (The Ohio State University, priority 2000, dated 2007):
Square brackets hold non-standard residues; d marks the D form. Peptide text beside a SMILES is read from it.

How the values were obtained:
[1] = system: CD4+ splenocytes from Vα4/Vβ8.2 TCR transgenic mice; assay type: cell-based, mouse; conditions: 72 h
Method: The in vitro effect of varying concentration of the CD 28 peptide mimetics on CD4+ lymph node cells and spleen cells from transgenic mice bearing the Vα 4 Vβ8.2 TCR specific for MBP Ac 1-11 was determined.
CD4+ T cells were purified from pooled peripheral lymph nodes (inguinal, axillary, brachial, cervical, popliteal), and mesenteric lymph nodes and spleen of 6–8 wk old Vα4/Vβ8.2 TCR transgenic mice by positive selection. Single cell suspensions were prepared by lympholyte M gradient, washed, counted and incubated with magnetic bead conjugated anti-mouse CD4 (L3T4) (Miltenyi Biotech Corporation) followed by positive selection using magnetic selection columns. Purity of the CD4^+ cells was greater than 90% as assessed by staining with FITC labeled anti-mouseVβ8.2 mAb (Pharmingen). During the selection process, T cells maintain a naïve phenotype with no evidence for T cell activation as measured by proliferation in culture. Purified CD4+ T-cells (5×10^4 cells/well) were cultured together with wild type splenocytes from B10.PL mice as APC's (10^5 cells/well) in RPMI 1640 containing 10% FCS, 25 mM HEPES, 2 mM L-glutamine, 50 U/ml penicillin, 50 μg/ml streptomycin, and 5×10–5 M 2-ME in round-bottom 96-well plates and MBP (40 μg/ml) or MBP NAc1-11 (10 μg/ml) or media only in the presence or absence of synthetic CD28 peptide analogues at different concentrations in triplicate wells for 72 h, including a final 18-h pulse with [^3H] thymidine. Cultures were harvested onto glass-fiber mats using a Skatron harvester (Skatron, Sterling, Va.) and were counted by liquid scintillation on LKB Betaplate (LKB, Rockville, Md.). The means of the triplicate were determined and the results are expressed as delta cpm (mean counts per minute of cultures with Ag-mean counts per minute of cultures with medium alone)±SD.

B10.PL mice with EAE = assay: EAE in B10.PL mice immunized with GP-MBP in CFA, clinical score; assay type: in vivo, mouse; conditions: for clinical course (in words): single i.v. 500 μg on day 14 post-immunization, observed 26 days
Method: Female B10.PL mice (6–8 wk old) were obtained from The Jackson laboratory (Bar Harbor, Me.) and housed at the Ohio State University, (Columbus, Ohio).
Mice were injected subcutaneously over four sites on the flank with an emulsion containing 200 μg of guinea-pig-MBP in CFA containing 200 μg heat killed Mycobacterium tuberculosis, Jamaica strain. Pertussis toxin (List Biological, Campbell, Calif.) at 150 ng in 0.2 ml of PBS was given intraperitoneally at the time of immunization and 48 hours later. Animals were observed daily for clinical signs and scored as follows: 1, limp tail or waddling gait with tail tonicity; 2, waddling gait with limp tail (ataxia); 2.5 ataxia with partial paralysis of one limb, 3, partial hind-limb paralysis, 3.5 full paralysis of one limb with partial paralysis of the second limb, 4, full paralysis of two limbs, 4.5 moribund and 5, death. All mice immunized with MBP (200 μg) in CFA developed clinical disease varying between ataxia and complete hind limb paralysis by day 14 post-immunization. They were then distributed randomly into six groups with mean clinical score of each group approximately the same.
Groups of mice were left untreated or injected intravenously with 500 μg of EL CD28 or RI CD28 peptide mimetics, or LCD28, RLCD28 and DCD28 peptides. The mean clinical score of untreated mice continued to increase reaching a maximum of 3.4 on day 20. Similarly the disease continued to progress in mice treated with LCD28, RLCD28 and DCD28, reaching mean maximal clinical score of 3.8 (day 18), 3.4 (day 16 ) and 3.7 (day 16) respectively.
The biological activity of synthetic CD28 peptide analogues during antigen priming in vivo in EAE was then shown. B10.PL mice immunized with GP-MBP (200 μg) in CFA were either left untreated or injected intravenously 500 μg of EL CD28 or RI CD28 peptide mimetics or LCD28, RLCD28 and DCD28 peptides on the day of immunization. The vehicle treated mice and mice treated with: LCD28, RL CD28 and D CD28 peptide had maximum disease incidence of 100%, 100%, 91.5% and 91.5% and maximum mean cumulative score per day of 1.9, 1.8, 1.7 and 2 respectively. […] The effect of RI CD28 peptide injection lasted for the duration of observation (37 days) in one experiment.

[2] = system: lymph node cells of MBP-primed mice; assay: IL-2 ELISPOT of draining lymph node cells from peptide-treated MBP-immunized mice; assay type: in vivo, mouse; conditions: mice treated on day 0 of immunization, ELISPOT on restimulation
Method: Ninety-six well unifilter plates (Polyfiltronics, Rockland, Md.) were coated overnight at 4° C. with rat anti-mouse IL-2 (Clone JES6-1A12) (Pharmingen, Calif.) at 4 μg/ml. The plates were then washed 4× with sterile PBS and blocked with 1% BSA in DMEM for 2 h at room temperature. Subsequently, isolated single cell suspensions of CD4+ LNC (5×10^6 cells/ml) and splenocytes (10×10^6 cells/ml) were added with the antigens and CD28 peptides under the conditions as specified for the proliferation assays. After 24 h of culture in the incubator, the cells were removed by washing 3× with PBS and 4× with PBS containing Tween (1:2000) (PBST). Then biotinylated anti mouse-IL-2 (Clone JES6-5H4) (Pharmingen, Calif.) 2 μg/ml was added and incubated at 4° C. overnight. After washing 3× with PBST and 3× with PBS, goat anti-biotin antibody conjugated to alkaline phosphatase (Vector Laboratories Inc, Burlingame, Calif.) diluted to 1:1000 in PBST containing 1% BSA was added and incubated for 2 h at room temperature. The spots were visualized by adding BCIP/NBT phosphatase substrate (Kirkeguard & Perry Laboratories, Gaithesburg, Md.). Image analysis of ELISA spot assays was performed on a Series 1 Immunospot Image Analyzer (Autoimmun Diagnostika (US) Inc.) customized for analyzing ELISA spots to meet objective criteria for size, chromatic density, shape and color.
MBP reactive T cells that induce EAE are known to display a Th1 phenotype secreting the proinflammatory cytokines IL-2, […] and TNF-β (36. Kay, B. K., M. P. Williamson, and M. Sudol. 2000. Faseb J 14, no. 2:231). ELISPOT assay was used to assess in vitro cytokine production by draining lymph node cells and splenocytes upon restimulation from in vivo MBP-primed T cells. Mice were treated as described in Example 3, on day 0 of immunization.

[3] = system: CD4+ lymphocytes of immunized mice; assay: Apoptosis of CD4+ T cells in peptide-treated EAE mice (enzymatic labeling of nicked ends); assay type: in vivo, mouse; conditions: mice treated on the day of immunization
Method: This was done by quantifying the DNA strand breaks in CD4+ lymphocytes detected by enzymatic labeling of nicked ends. Cells incubated in DNAse served as positive control.

[4] = single i.v. 500 μg on the day of immunization

In the case of `CC[C@@H](C)[C@@H](NC(C)=O)C(=O)N[C@@H](C(=O)NCC(=O)N[C@H](CC(N)=O)C(=O)N[C@H](CO)C(=O)N[C@H](CCCNC(=N)N)C(=O)N[C@H](CCC(=O)O)C(=O)N[C@H](CC(N)=O)C(=O)N[C@H](CC(=O)O)C(=O)N[C@H](CC(C)C)C(=O)N[C@H](Cc1ccc(O)cc1)C(=O)N1CCC[C@@H]1C(=O)N1CCC[C@@H]1C(=O)N1CCC[C@@H]1C(=O)N[C@H](Cc1ccc(O)cc1)C(=O)N[C@H](CCSC)C(=O)N[C@H](Cc1ccccc1)C(=O)N[C@H](CCC(=O)O)C(=O)N[C@@H](C(=O)N[C@H](CCCCN)C(N)=O)[C@H](C)CC)[C@H](C)O` [RI CD28] (Ac-[dI][dT]G[dN][dS][dR][dE][dN][dD][dL][dY][dP][dP][dP][dY][dM][dF][dE][dI][dK]-NH2), the “maximum inhibition of proliferative response” value [1] is reported as 42%, the “clinical course (in words)” value (B10.PL mice with EAE) is reported as “continued to show clinical improvement” and the maximum disease incidence (B10.PL mice with EAE; [4]) is reported as 60%. For the same molecule, the “maximum mean cumulative score per day” value (B10.PL mice with EAE; [4]) was 0.74, the “duration of effect of injection” value (B10.PL mice with EAE; single i.v. 500 μg on the day of immunization, one experiment, duration of observation) was 37 days and the “frequency of IL-2 secreting lymph node cells” value [2] was 1753+/−37.7. For the same molecule, the “percentage of apoptotic CD4+ T cells” value [3] was 16%.
For `CC[C@H](C)[C@H](NC(=O)[C@@H](NC(=O)CNC(=O)[C@H](CC(N)=O)NC(=O)[C@H](CO)NC(=O)[C@H](CCCNC(=N)N)NC(=O)[C@H](CCC(=O)O)NC(=O)[C@H](CC(N)=O)NC(=O)[C@H](CC(=O)O)NC(=O)[C@H](CC(C)C)NC(=O)[C@H](Cc1ccc(O)cc1)NC(=O)[C@@H]1CCCN1C(=O)[C@@H]1CCCN1C(=O)[C@@H]1CCCN1C(=O)[C@H](Cc1ccc(O)cc1)NC(=O)[C@H](CCSC)NC(=O)[C@H](Cc1ccccc1)NC(=O)[C@H](CCC(=O)O)NC(=O)[C@@H](NC(=O)[C@H](CCCCN)NC(C)=O)[C@@H](C)CC)[C@@H](C)O)C(N)=O` [EL CD28] (Ac-KIEFMYPPPYLDNERSNGTI-NH2), the “clinical course (in words)” value (B10.PL mice with EAE) was “continued to show clinical improvement”, the maximum disease incidence (B10.PL mice with EAE; [4]) was 70% and the “maximum mean cumulative score per day” value (B10.PL mice with EAE; [4]) was 1.1. For the same molecule, the “frequency of IL-2 secreting lymph node cells” value [2] was 2776+/−53.5.
